Laboratory results from paper PMC7413254 (Nature Communications, 2020).

What was measured:
Assay type in all cases: cell-based
PfCRT^Dd2 [1] = molecular target: T1, PfCRT^Dd2 (Plasmodium falciparum, UniProt Q9N623, A220S/I356T/K76T/M74I/N326S/N75E/Q271E/R371I); assay: [3H]CQ uptake into Xenopus oocytes, cis-inhibition by unlabelled solute; conditions: PfCRTDd2 oocytes, background [3H]CQ accumulation subtracted, normalised to oocyte type control
Outline: (§1)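 Transport runs from the acidic bath into the cytosol, analogous to PfCRT-mediated efflux out of the vacuole. Non-expressing oocytes act as background.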

PfCRT^Ecu1110 [2] = molecular target: T2, PfCRT^Ecu1110 (Plasmodium falciparum, UniProt Q9N623, A220S/I356L/K76T/N326D); assay: as above; conditions: for PfCRT-mediated [3H]CQ transport, cis-inhibition (% PfCRTEcu1110 control): PfCRTEcu1110 oocytes, background [3H]CQ accumulation subtracted, normalised to oocyte type control; for [3H]CQ transport (% PfCRTEcu1110 control), cis-inhibition, PfCRTEcu1110: PfCRT-mediated component (background subtracted), sheet title says normalised to PfCRTDd2 control, mean ± SEM, SEM
T2 sequence (Q9N623 whole entry A220S/I356L/K76T/N326D): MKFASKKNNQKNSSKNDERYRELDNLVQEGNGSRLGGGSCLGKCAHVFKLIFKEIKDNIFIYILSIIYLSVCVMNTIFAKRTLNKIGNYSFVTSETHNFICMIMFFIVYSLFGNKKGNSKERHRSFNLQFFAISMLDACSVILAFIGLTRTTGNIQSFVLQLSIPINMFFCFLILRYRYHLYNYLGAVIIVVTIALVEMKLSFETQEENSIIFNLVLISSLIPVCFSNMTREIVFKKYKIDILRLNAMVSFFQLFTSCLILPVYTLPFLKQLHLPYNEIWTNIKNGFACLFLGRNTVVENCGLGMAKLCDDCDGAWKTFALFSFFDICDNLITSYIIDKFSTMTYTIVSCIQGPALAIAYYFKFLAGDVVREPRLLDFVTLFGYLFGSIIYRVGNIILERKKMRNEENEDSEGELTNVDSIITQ
Outline: as §1

PfCRT^3D7 = PfCRT^3D7 (Plasmodium falciparum, UniProt Q8IBZ9); assay: cell-based; conditions: PfCRT3D7 oocytes, normalised to oocyte type control
Chain of PfCRT^3D7 (Q8IBZ9 59-398): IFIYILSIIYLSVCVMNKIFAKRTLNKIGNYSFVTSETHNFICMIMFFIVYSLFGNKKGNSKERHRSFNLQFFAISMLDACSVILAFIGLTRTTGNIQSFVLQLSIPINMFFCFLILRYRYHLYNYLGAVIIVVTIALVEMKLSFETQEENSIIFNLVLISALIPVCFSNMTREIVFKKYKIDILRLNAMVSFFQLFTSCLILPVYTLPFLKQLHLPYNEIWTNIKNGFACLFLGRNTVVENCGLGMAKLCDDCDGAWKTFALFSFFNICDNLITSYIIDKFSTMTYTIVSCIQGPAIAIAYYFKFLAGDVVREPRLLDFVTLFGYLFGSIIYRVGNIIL
Outline: (§2)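 Oocytes (ten per treatment, ≥4 independent frogs/days) were preloaded by injecting VF-6 in 25 nL ND96 at pH 5.0, 5.5, 6.0 or 7.0, or Na^+-free choline buffer, then uptake run 1.5 h, 27.5 °C, ND96 pH 5.5 by default. Internal concentrations assumed ~400 nL oocyte volume.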

PfCRT^Dd2 [3] = molecular target: T1, PfCRT^Dd2; assay: cell-based; conditions: for PfCRT-mediated [3H]CQ transport, trans-stimulation (% PfCRTDd2 control): PfCRTDd2 oocytes, normalised to oocyte type control; for [3H]CQ transport (% PfCRTDd2 control), trans-stimulation, PfCRTDd2: PfCRT-mediated component (background subtracted), mean ± SEM, SEM
Outline: as §2

PfCRT^Ecu1110 [4] = molecular target: T2, PfCRT^Ecu1110; assay: cell-based; conditions: for PfCRT-mediated [3H]CQ transport, trans-stimulation (% PfCRTEcu1110 control): PfCRTEcu1110 oocytes, normalised to oocyte type control; for [3H]CQ transport (% PfCRTDd2 control), trans-stimulation, PfCRTEcu1110: PfCRT-mediated component (background subtracted), sheet title says normalised to PfCRTDd2 control, mean ± SEM, SEM
Outline: as §2

[5] = [test solute]i = 5 mM (intracellular)
[6] = [test solute]i = 45 mM (intracellular; 30 mM for some solutes due to solubility)
[7] = [test solute]i = 5 mM (injected)
[8] = [test solute]i = 45 mM (30 mM for some solutes due to solubility)

T1 sequence (Q9N623 whole entry A220S/I356T/K76T/M74I/N326S/N75E/Q271E/R371I): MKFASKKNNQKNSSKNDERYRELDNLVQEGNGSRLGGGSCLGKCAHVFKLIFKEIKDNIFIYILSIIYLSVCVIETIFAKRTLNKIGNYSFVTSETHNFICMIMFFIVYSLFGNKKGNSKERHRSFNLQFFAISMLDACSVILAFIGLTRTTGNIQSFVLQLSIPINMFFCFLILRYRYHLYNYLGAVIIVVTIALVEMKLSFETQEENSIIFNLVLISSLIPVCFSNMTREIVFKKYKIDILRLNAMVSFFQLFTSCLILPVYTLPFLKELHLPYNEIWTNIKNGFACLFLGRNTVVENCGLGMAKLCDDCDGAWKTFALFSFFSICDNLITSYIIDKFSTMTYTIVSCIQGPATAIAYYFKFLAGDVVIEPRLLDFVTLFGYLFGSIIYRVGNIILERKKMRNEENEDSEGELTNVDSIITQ

Substance | PfCRT-mediated [3H]CQ transport, cis-inhibition (% PfCRTDd2 control) (PfCRT^Dd2 [1]; [test solute] = 0.5 mM) | PfCRT-mediated [3H]CQ transport, cis-inhibition (% PfCRTDd2 control) (PfCRT^Dd2 [1]; [test solute] = 1 mM) | PfCRT-mediated [3H]CQ transport, cis-inhibition (% PfCRTDd2 control) (PfCRT^Dd2 [1]; [test solute] = 2 mM) | PfCRT-mediated [3H]CQ transport, cis-inhibition (% PfCRTEcu1110 control) (PfCRT^Ecu1110 [2]; [test solute] = 1 mM) | PfCRT-mediated [3H]CQ transport, cis-inhibition (% PfCRTEcu1110 control) (PfCRT^Ecu1110 [2]; [test solute] = 2 mM) | [3H]CQ transport (% PfCRTEcu1110 control), cis-inhibition, PfCRTEcu1110 (PfCRT^Ecu1110 [2]; [test solute] = 0.5 mM) | [3H]CQ transport (% PfCRTEcu1110 control), cis-inhibition, PfCRTEcu1110 (PfCRT^Ecu1110 [2]; [test solute] = 1 mM) | [3H]CQ transport (% PfCRTEcu1110 control), cis-inhibition, PfCRTEcu1110 (PfCRT^Ecu1110 [2]; [test solute] = 2 mM) | PfCRT-mediated [3H]CQ transport, trans-stimulation (% PfCRT3D7 control) (PfCRT^3D7; [5]) | PfCRT-mediated [3H]CQ transport, trans-stimulation (% PfCRT3D7 control) (PfCRT^3D7; [6]) | PfCRT-mediated [3H]CQ transport, trans-stimulation (% PfCRTDd2 control) (PfCRT^Dd2 [3]; [5]) | PfCRT-mediated [3H]CQ transport, trans-stimulation (% PfCRTDd2 control) (PfCRT^Dd2 [3]; [6]) | [3H]CQ transport (% PfCRTDd2 control), trans-stimulation, PfCRTDd2 (PfCRT^Dd2 [3]; [7]) | [3H]CQ transport (% PfCRTDd2 control), trans-stimulation, PfCRTDd2 (PfCRT^Dd2 [3]; [8]) | PfCRT-mediated [3H]CQ transport, trans-stimulation (% PfCRTEcu1110 control) (PfCRT^Ecu1110 [4]; [5]) | PfCRT-mediated [3H]CQ transport, trans-stimulation (% PfCRTEcu1110 control) (PfCRT^Ecu1110 [4]; [6]) | [3H]CQ transport (% PfCRTDd2 control), trans-stimulation, PfCRTEcu1110 (PfCRT^Ecu1110 [4]; [7]) | [3H]CQ transport (% PfCRTDd2 control), trans-stimulation, PfCRTEcu1110 (PfCRT^Ecu1110 [4]; [8]) | PfCRT-mediated [3H]CQ transport, cis-inhibition (% PfCRTEcu1110 control) (PfCRT^Ecu1110 [2]; [test solute] = 0.5 mM)
KEEAE [KE-5] | 68 ± 3.2 % PfCRTDd2 control | 60 ± 4.9 % PfCRTDd2 control | 50 ± 1.1 % PfCRTDd2 control | 61 ± 1.5 % PfCRTEcu1110 control | 54 ± 2.1 % PfCRTEcu1110 control | 21 ± 0.4 % PfCRTEcu1110 control | 19 ± 0.3 % PfCRTEcu1110 control | 17 ± 0.3 % PfCRTEcu1110 control | 98 ± 3.3 % PfCRT3D7 control | 96 ± 2.1 % PfCRT3D7 control | 97 ± 4.2 % PfCRTDd2 control | 99 ± 3.2 % PfCRTDd2 control | 97 ± 4.2 % PfCRTDd2 control | 99 ± 3.2 % PfCRTDd2 control | 98 ± 3.1 % PfCRTEcu1110 control | 98 ± 1.3 % PfCRTEcu1110 control | 30 ± 1.5 % PfCRTEcu1110 control | 30 ± 1.3 % PfCRTEcu1110 control | –
HVDDMP [HP-6] | 22 ± 2.9 % PfCRTDd2 control | 16 ± 1.2 % PfCRTDd2 control | 4.1 ± 0.1 % PfCRTDd2 control | 31 ± 1.6 % PfCRTEcu1110 control | 21 ± 1.6 % PfCRTEcu1110 control | – | – | 7.0 ± 0.02 % PfCRTEcu1110 control | 142 ± 3.3 % PfCRT3D7 control | 190 ± 4.3 % PfCRT3D7 control | 103 ± 1.1 % PfCRTDd2 control | 112 ± 1.1 % PfCRTDd2 control | 103 ± 1.1 % PfCRTDd2 control | 112 ± 1.1 % PfCRTDd2 control | 122 ± 4.2 % PfCRTEcu1110 control | 139 ± 3.4 % PfCRTEcu1110 control | 36 ± 1.3 % PfCRTEcu1110 control | 42 ± 1.3 % PfCRTEcu1110 control | 40 ± 1.0 % PfCRTEcu1110 control
GLAHL [GL-5] | 62 ± 1.1 % PfCRTDd2 control | 50 ± 3.5 % PfCRTDd2 control | 20 ± 1.3 % PfCRTDd2 control | 58 ± 3.5 % PfCRTEcu1110 control | 28 ± 2.0 % PfCRTEcu1110 control | – | 18 ± 0.1 % PfCRTEcu1110 control | 9.0 ± 0.01 % PfCRTEcu1110 control | 97 ± 3.5 % PfCRT3D7 control | 94 ± 4.6 % PfCRT3D7 control | 98 ± 4.1 % PfCRTDd2 control | 98 ± 3.3 % PfCRTDd2 control | 98 ± 4.1 % PfCRTDd2 control | 98 ± 3.3 % PfCRTDd2 control | 96 ± 4.1 % PfCRTEcu1110 control | 99 ± 3.6 % PfCRTEcu1110 control | 29 ± 1.4 % PfCRTEcu1110 control | 30 ± 1.3 % PfCRTEcu1110 control | 68 ± 2.5 % PfCRTEcu1110 control
VDPVNFK [VK-7] | 17 ± 0.3 % PfCRTDd2 control | 9 ± 0.1 % PfCRTDd2 control | 3.2 ± 0.1 % PfCRTDd2 control | 27 ± 4.1 % PfCRTEcu1110 control | 22 ± 2.4 % PfCRTEcu1110 control | 13 ± 0.6 % PfCRTEcu1110 control | 9.0 ± 0.02 % PfCRTEcu1110 control | 7.0 ± 0.04 % PfCRTEcu1110 control | 128 ± 3.2 % PfCRT3D7 control | 179 ± 5.3 % PfCRT3D7 control | 100 ± 4.2 % PfCRTDd2 control | 98 ± 2.2 % PfCRTDd2 control | 100 ± 4.2 % PfCRTDd2 control | 98 ± 2.2 % PfCRTDd2 control | 132 ± 3.5 % PfCRTEcu1110 control | 138 ± 4.1 % PfCRTEcu1110 control | 40 ± 2.1 % PfCRTEcu1110 control | 42 ± 2.4 % PfCRTEcu1110 control | 40 ± 2.5 % PfCRTEcu1110 control
VLSPAD [VD-6] | 47 ± 1.8 % PfCRTDd2 control | 28 ± 1.1 % PfCRTDd2 control | 29 ± 1.0 % PfCRTDd2 control | 48 ± 3.2 % PfCRTEcu1110 control | 39 ± 0.4 % PfCRTEcu1110 control | – | – | 12 ± 0.01 % PfCRTEcu1110 control | 97 ± 4.2 % PfCRT3D7 control | 95 ± 4.1 % PfCRT3D7 control | 101 ± 3.6 % PfCRTDd2 control | 98 ± 3.3 % PfCRTDd2 control | 101 ± 3.6 % PfCRTDd2 control | 98 ± 3.3 % PfCRTDd2 control | 98 ± 3.2 % PfCRTEcu1110 control | 98 ± 3.3 % PfCRTEcu1110 control | 30 ± 1.3 % PfCRTEcu1110 control | 30 ± 1.4 % PfCRTEcu1110 control | 58 ± 3.5 % PfCRTEcu1110 control
